The text below walks through data of patent publication US9115133B2, “Substituted fused tricyclic compounds, compositions and medicinal applications thereof” (Advinus Therapeutics Limited, priority 2011, dated 2015).

A value given as a limit tells only on which side of the number the result lay.

Holding throughout (assay type): biochemical
Conditions in all cases: 200 μg/ml Poly Glu-Tyr (4:1), ATP 1 uM, 90 min room temperature, luminescence

Assay [1] addresses T1, Recombinant JAK2 (Amino acids 808-1132) (Homo sapiens, UniProt O60674).
T1 construct: JAK2 (Amino acids 808-1132; NM_004972.3); made in house; host or cells: baculovirus expression system (Bac-to-Bac)
Briefly: Kinase-Glo Luminescent Kinase Assay, recombinant JAK2. Summed up: (§1)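 Baculovirus-expressed kinase domains were pre-incubated 5 min with compound (1% DMSO), then reacted 90 min at room temperature with 200 μg/ml poly Glu-Tyr (4:1) and 1 uM ATP in 50 mM HEPES pH 7.4, 5 mM MgCl2. Remaining ATP was read by Kinase-Glo luminescence. IC50 came from four-parameter logistic fits.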
Background: Kinase-Glo measures the ATP left after a reaction by luminescence.

Assay [2] addresses T2, Recombinant JAK3 (Amino acids 781-1124) (Homo sapiens, UniProt P52333).
T2 construct: JAK3 (Amino acids 781-1124; NM_000215.3); made in house; host or cells: baculovirus expression system (Bac-to-Bac)
Put plainly: Kinase-Glo Luminescent Kinase Assay, recombinant JAK3. Summed up: as §1

The target in assay [3] is T3, Recombinant JAK1 (Amino acids 850-1154) (Homo sapiens, UniProt P23458).
T3 construct: Recombinant JAK1 (Amino acids 850-1154; NM_002227.2); made in house; host or cells: baculovirus expression system (Bac-to-Bac)
T3 sequence (P23458 850-1154): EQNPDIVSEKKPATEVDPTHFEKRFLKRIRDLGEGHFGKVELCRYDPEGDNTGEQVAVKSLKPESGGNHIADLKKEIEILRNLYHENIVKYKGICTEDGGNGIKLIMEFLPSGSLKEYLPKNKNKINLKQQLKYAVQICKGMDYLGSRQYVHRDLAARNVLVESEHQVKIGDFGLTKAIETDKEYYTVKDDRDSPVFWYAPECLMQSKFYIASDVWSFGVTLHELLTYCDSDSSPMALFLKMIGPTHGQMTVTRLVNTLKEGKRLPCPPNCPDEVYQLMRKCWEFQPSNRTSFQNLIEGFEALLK
Put plainly: Kinase-Glo Luminescent Kinase Assay, recombinant JAK1. Summed up:
as §1

T2 sequence (P52333 781-1124): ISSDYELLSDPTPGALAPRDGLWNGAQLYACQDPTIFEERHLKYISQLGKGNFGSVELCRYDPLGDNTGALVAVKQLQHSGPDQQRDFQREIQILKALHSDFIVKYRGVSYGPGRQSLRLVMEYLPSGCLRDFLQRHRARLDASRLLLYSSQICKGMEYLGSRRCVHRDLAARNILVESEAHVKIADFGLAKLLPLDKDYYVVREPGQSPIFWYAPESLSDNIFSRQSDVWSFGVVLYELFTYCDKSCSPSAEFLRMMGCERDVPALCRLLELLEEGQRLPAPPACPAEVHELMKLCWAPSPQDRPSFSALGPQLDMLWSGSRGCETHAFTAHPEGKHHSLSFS
T1 sequence (O60674 808-1132): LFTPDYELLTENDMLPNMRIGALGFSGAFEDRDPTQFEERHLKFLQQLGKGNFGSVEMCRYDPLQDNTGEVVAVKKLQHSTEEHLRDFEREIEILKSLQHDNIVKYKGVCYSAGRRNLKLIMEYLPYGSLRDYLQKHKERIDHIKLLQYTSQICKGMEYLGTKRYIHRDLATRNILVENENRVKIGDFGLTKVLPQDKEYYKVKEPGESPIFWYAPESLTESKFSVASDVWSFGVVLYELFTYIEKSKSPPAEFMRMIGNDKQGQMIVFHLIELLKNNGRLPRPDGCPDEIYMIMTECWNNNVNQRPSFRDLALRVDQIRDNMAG

Take `CC(C)/C(=N\C#N)N1CCC[C@@H](c2ccnc3cnc4[nH]ccc4c23)C1` [Ex. 43B, (S)(E)-[2-methyl-1-[3-(3H-pyrrolo[3,2-f][1,7]naphthyridin-9-yl)-1-piperidyl]propylidene]cyanamide]: the IC50 in assay [1], in assay [2] and in assay [3] was 1 to 20 nM throughout.

On to `CCS(=O)(=O)N1CCCC(c2ccnc3cnc4[nH]ccc4c23)C1` (stereo not drawn) [Ex. 9, 9-(1-ethylsulfonyl-3-piperidyl)-3H-pyrrolo[3,2-f][1,7]naphthyridine], for which the IC50 in assay [1], in assay [2] and in assay [3] was 1 to 20 nM in each case.

On to `N#CCC(=O)N1CCC[C@@H](c2ncnc3cnc4[nH]ccc4c23)C1` [Ex. 23A, (R)3-Oxo-3-[3-(3H-3,4,6,8-tetraazacyclopenta[a]naphthalen-9-yl)-piperidin-1-yl]-propionitrile], for which the IC50 in assay [1], in assay [2] and in assay [3] was above 20 nM throughout.

For the compound `N#CCC(=O)N1CCN(c2ccnc3cnc4[nH]ccc4c23)CC1` [Ex. 102, 3-oxo-3-[4-(3H-pyrrolo[3,2-f][1,7]naphthyridin-9-yl)piperazin-1-yl]propanenitrile], the IC50 in assay [1], in assay [2] and in assay [3] was above 20 nM in each case.

In the case of `N#C/N=C(\CC(F)(F)F)N1CCC(c2ccnc3cnc4[nH]ccc4c23)C1` (stereo not drawn) [Ex. 45, (E)-[3,3,3-trifluoro-1-[3-(3H-pyrrolo[3,2-f][1,7]naphthyridin-9-yl)pyrrolidin-1-yl]propylidene]cyanamide], the results for the IC50 in assay [1], in assay [2] and in assay [3] were 1 to 20 nM, above 20 nM and 1 to 20 nM, respectively.

Turning to `CCNC(=O)C1CCCN(c2ccnc3cnc4[nH]ccc4c23)C1` (stereo not drawn) [Ex. 72, N-ethyl-1-(3H-pyrrolo[3,2-f][1,7]naphthyridin-9-yl)piperidine-3-carboxamide], the IC50 in assay [1], in assay [2] and in assay [3] was above 20 nM each time.

With `CC(C)(C)OC(=O)N1CCCC(c2ncnc3cnc4[nH]ccc4c23)C1` (stereo not drawn) [Comp. 55, 3-(3H-3,4,6,8-Tetraaza-cyclopenta[a]naphthalen-9-yl)-piperidine-1-carboxylic acid tert-butyl ester], the half-maximal inhibitory concentration (IC50) in assay [1] is above 20 nM; in assay [2], above 20 nM; in assay [3] it was 1 to 20 nM.

As for `O=C(NC1CC1)[C@@H]1CCCN(c2ccnc3cnc4[nH]ccc4c23)C1` [Ex. 61B, (3R)-N-cyclopropyl-1-(3H-pyrrolo[3,2-f][1,7]naphthyridin-9-yl)piperidine-3-carboxamide], the IC50 in assay [1], in assay [2] and in assay [3] was above 20 nM in each case.

`CC(C)/C(=N\C#N)N1CCC[C@H](c2ccnc3cnc4[nH]ccc4c23)C1` [Ex. 43A, (R)(E)-[2-methyl-1-[3-(3H-pyrrolo[3,2-f][1,7]naphthyridin-9-yl)-1-piperidyl]propylidene]cyanamide]: the IC50 in assay [1], in assay [2] and in assay [3] was above 20 nM throughout.

In the case of `CC(C)CC(=O)N1CCCC(c2ncnc3cnc4[nH]ccc4c23)C1` (stereo not drawn) [Ex. 21, 3-Methyl-1-[3-(3H-3,4,6,8-tetraazacyclopenta[a]naphthalen-9-yl)-piperidin-1-yl]-butan-1-one], the IC50 in assay [1], in assay [2] and in assay [3] was above 20 nM throughout.

One may read the IC50 as the concentration that inhibits the measured activity by half.
